Data set [1] deals with T1, human ACKR3 (Homo sapiens, UniProt P25106).
T1 construct: expressed in transfected cells; host or cells: HEK293T
Nature of the data set: ACKR3 β-Arrestin recruitment assay (NanoLuc complementation, NanoBiT) in HEK293T cells. It counts as cell-based. Conditions: for Efficacy (Emax) vs CXCL12: efficacy of CXCL12 at 300 nM set as 100%, average of three independent experiments. The procedure:
ACKR3 β-Arrestin Recruitment Assay. […] T.; Encell, L. P.; Wood, K. V. Nanoluc complementation reporter optimized for accurate measurement of protein interactions in cells. […] B.; Reynders, N.; Vanderplasschen, A.; Ollert, M.; Bouvier, M.; Szpakowska, M.; Chevigné, A. Proadrenomedullin n-terminal 20 peptides (pamps) are agonists of the chemokine scavenger receptor ACKR3/CXCR7. […] The prepared cells were then treated with compounds at concentrations ranging from 0.3 nM to 100 µM. Induction of β-Arrestin recruitment to receptors was evaluated by measuring bioluminescence with a Mithras LB940 luminometer (Berthold Technologies).
All curves were fitted to data points generated from the mean of at least three independent experiments. Results with values of p < 0.05 were considered statistically significant.
For orientation: Arrestin recruitment assays detect the binding of arrestin to an activated receptor.

In data set [2] the test system is HEK293 cells. Briefly: RealTime-Glo MT cell viability assay. The conditions noted are these: concentrations of 1 µM and below, up to 72 h. It counts as cell-based. The procedure:
Cell viability studies. […].
Cell Viability Assay. RealTime-Glo™ MT Cell Viability Assay (Promega Corporation, Madison, WI, USA) was performed using THP1 cells and HEK293 cells as indicated in the manufacturer's manual to measure a compound's cytotoxicity on cells. In brief, in a white solid-bottom 96-well plate cells (5x10^3/well) were seeded and incubated with the respective compounds diluted in DMEM (Gibco, Carlsbad, CA, USA). After cell seeding viability reagent is added. Subsequently, cells were incubated with the compound and viability reagent containing medium at 37 °C, 5% CO2 for 72 h. The luminescence signal was determined after 1, 24, 48, and 72 hours on a GloMax®-Multi Detection System plate reader (Promega Corporation, Madison, Wl, USA).

Data set [3] deals with platelets. Nature of the data set: Light transmission platelet aggregation experiments. It counts as cell-based. Conditions: preincubation with 100 µM ACKR3 agonist, activation with 2.5 µM ADP; compared to the control. The procedure:
Platelet aggregation studies. To further evaluate the compounds inhibitory potential of platelet aggregation, aggregation experiments were conducted.
Aggregation experiments. For the light transmission aggregation experiments, citrate anticoagulated blood from healthy donors was used. To obtain platelet-rich plasma, whole blood was centrifuged at 210 × g for 20 min at room temperature. 1 × 10^8 platelets were preincubated with 100 µM ACKR3 agonist for 15 min at 37°C. Subsequently, platelets were activated with 2.5 µM ADP and aggregation was analyzed for 5 min at 1,000 rpm and 37°C using a light transmission aggregometer (Aggregometer 490-X; Chrono-Log Corp., Havertown, Pennsylvania, United States). Maximum platelet aggregation and the area under the curve were quantified using Aggrolink8 software (Chrono-Log Corp., Havertown, Pennsylvania, United States).

Data set [4] in a line: Kinetic solubility assay. The conditions noted are these: for solubility: PBS buffer with 1% DMSO, 4 °C, aqueous buffer, kinetic from dmso stock, 1% DMSO, 99% PBS buffer (pH 7.4); for Solubility (in words): mixture 1 vol.% DMSO and 99 vol.% PBS buffer. It counts as physicochemical. The procedure: Solubility Assay. A 100 mL flask with phosphate-buffered saline was prepared from NaCl, KCI, Na2HPO4, KH2PO4, and distilled water. The buffer was adjusted to pH 7.4 with HCl. Afterwards, 10mM stock solutions of compounds in DMSO were prepared. 10 µL compound stock solution was added to 990 µL PBS in Eppendorf tubes. As a reference, 10 µL compound stock solution was added to 990 µL HPLC-grade MeOH in Eppendorf tubes. All tubes were centrifuged (16000 relative centrifugal force, 4 °C, 20 min). Subsequently, 600 µL supernatant was extracted carefully and filled into HPLC vials. […] Compounds solubility was calculated by AUC of compound in PBS divided by AUC of reference solution multiplied by concentration of the compound in solution.

Data set [5] deals with platelets. Briefly: Flow cytometry assay of platelet degranulation (P-Selectin surface expression in PRP). Type of data set: cell-based, human. Conditions: PRP pre-incubated with compound (100 µM), then CRP-XL (1 µg/mL); % ±SEM normalized to CRP-XL-treated vehicle PRP. The procedure: Platelet Degranulation Studies of Derivatives. Concurrent with the β-Arrestin recruitment potency optimization, the compounds were also tested and developed according to their functional activity. To determine the ability of a compound to modulate platelets, P-Selectin surface expression was measured. P-Selectin is a surface protein involved in cell adhesion mechanisms and can be found on activated platelets. After induction of platelet aggregation in platelet-rich plasma (PRP), treatment with the respective compound should therefore lead to a significant reduction in P-Selectin expression. […]. […]. Similarly, platelet degranulation potency was highly sensitive toward "linker"-changes (Structure C, Table 1). A distinct trend could not be registered. […]. Flow Cytometry Assay. The inhibition of platelet degranulation was determined via flow cytometry experiments. Platelets were treated with collagen-related peptide (CRP-XL, CambCol Laboratories, Cambridge, UK) and the platelets' activation state was determined (Geue, S.; Aurbach, K.; Manke, M.-C.; Manukjan, G.; Münzer, P.; Stegner, D.; Brähler, C.; Walker-Allgaier, B.; Märklin, M.; Borst, C. E.; Quintanilla-Fend, L.; Rath, D.; Geisler, T.; Salih, H. R.; Seizer, P.; Lang, F.; Nieswandt, B.; Gawaz, M.; Schulze, H.; Pleines, I.; Borst, O. Pivotal role of pdk1 in megakaryocyte cytoskeletal dynamics and polarization during platelet biogenesis. Blood 2019, 134, 1847-1858; and Malehmir, M.; Pfister, D.; Gallage, S.; Szydlowska, M.; Inverso, D.; Kotsiliti, E.; Leone, V.; Peiseler, M.; Surewaard, B. G. J.; Rath, D.; Ali, A.; Wolf, M. J.; Drescher, H.; Healy, M. E.; Dauch, D.; Kroy, D.; Krenkel, O.; Kohlhepp, M.; Engleitner, T.; Olkus, A.; Sijmonsma, T.; Volz, J.; Deppermann, C.; Stegner, D.; Helbling, P.; Nombela-Arrieta, C.; Rafiei, A.; Hinterleitner, M.; Rail, M.; Baku, F.; Borst, O.; Wilson, C. L.; Leslie, J.; O'Connor, T.; Wes-ton, C. J.; Chauhan, A.; Adams, D. H.; Sheriff, L.; Teijeiro, A.; Prinz, M.; Bogeska, R.; An-stee, N.; Bongers, M. N.; Notohamiprodjo, M.; Geisler, T.; Withers, D. J.; Ware, J.; Mann, D. A.; Augustin, H. G.; Vegiopoulos, A.; Milsom, M. D.; Rose, A. J.; Lalor, P. F.; Llovet, J. M.; Pinyol, R.; Tacke, F.; Rad, R.; Matter, M.; Djouder, N.; Kubes, P.; Knolle, P. A.; Unger, K.; Zender, L.; Nieswandt, B.; Gawaz, M.; Weber, A.; Heikenwalder, M. Platelet gpibα is a mediator and potential interventional target for nash and subsequent liver cancer. Nat. Med. 2019, 25, 641-655). Briefly, PRP was isolated from peripheral human blood collected in citrate-phosphate-dextrose solution with adenine (CPDA) and diluted with phosphate-buffered saline (PBS) (Sigma Aldrich Co., Ltd., St. Luis, Missouri, USA) supplemented with CaCl2 and MgCl2. PRP (106 platelets /sample) was preincubated with the respective compound (100 µM) for 15 min. Samples were treated with 1 µg/ml CRP-XL (CambCol Laboratories, Cambridge, UK) for 30 min at room temperature in the presence of the respective fluorochrome-conjugated antibody against P-Selectin (CD62P-FITC; Beckman Coulter, Brea, CA, USA). Subsequently, samples were fixed in 0.5% paraformaldehyde and analyzed on a FACS-Calibur flow cytometer (FACS-Caliber flow cytometer, Becton-Dickinson, East Rutherford, NJ, USA). Mean fluorescence intensity (MFI) was used as a quantitative measurement of platelet surface expression.
Background: In flow cytometry, cells or beads pass a laser one at a time.

[6] abbreviates: ACKR3, HEK293T cells, average value of three independent experiments.

Where “and” joins values, the source holds several entries; their conditions need not be identical. Equal entries are not always repeated.

T1 sequence (P25106 whole entry): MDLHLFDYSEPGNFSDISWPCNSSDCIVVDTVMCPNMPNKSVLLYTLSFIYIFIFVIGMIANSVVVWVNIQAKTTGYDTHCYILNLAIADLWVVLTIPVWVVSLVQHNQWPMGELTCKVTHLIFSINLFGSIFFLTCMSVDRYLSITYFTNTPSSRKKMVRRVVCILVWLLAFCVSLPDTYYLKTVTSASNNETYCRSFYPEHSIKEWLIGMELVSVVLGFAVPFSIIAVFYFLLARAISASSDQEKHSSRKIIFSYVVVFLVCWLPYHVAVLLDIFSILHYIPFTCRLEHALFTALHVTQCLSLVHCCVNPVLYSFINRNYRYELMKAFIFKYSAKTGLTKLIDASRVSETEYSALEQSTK
T1 sequence (P49407 whole entry partner): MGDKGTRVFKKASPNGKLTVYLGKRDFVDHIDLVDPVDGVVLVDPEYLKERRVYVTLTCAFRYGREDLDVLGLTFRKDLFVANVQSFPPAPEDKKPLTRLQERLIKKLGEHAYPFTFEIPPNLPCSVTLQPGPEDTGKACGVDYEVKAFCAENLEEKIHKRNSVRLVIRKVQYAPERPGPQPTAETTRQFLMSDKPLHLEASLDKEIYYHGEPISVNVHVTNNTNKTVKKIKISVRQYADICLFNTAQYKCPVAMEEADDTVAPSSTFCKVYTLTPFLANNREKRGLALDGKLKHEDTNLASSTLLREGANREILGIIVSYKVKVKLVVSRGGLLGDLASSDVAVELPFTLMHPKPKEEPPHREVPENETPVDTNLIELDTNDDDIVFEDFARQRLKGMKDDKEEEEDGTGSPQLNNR

As usually defined, the EC50 is the concentration at which the effect is half-maximal. Low values mean an effect from little substance, high ones a need for much substance. One may read the solubility as how much of the substance goes into solution per volume. `CCN(CCCNC(=O)c1ccc(-c2ccccc2)s1)Cc1ccccc1` [Compound 23, N-(3-(benzyl(ethyl)amino)propyl)-5-phenylthiophene-2-carboxamide] returned an EC50 in data set [1] (setting [6]) of 0.111 µM. In data set [2], the “cell toxicity / tolerability (in words)” value is given as “tolerated well”. Also, the “platelet aggregation (in words)” value in data set [3] is reported as “highest potency for platelet aggregation inhibition”. The solubility was 30 µg/mL in data set [4] and 75 ± 1 µM in data set [4] (average of three independent experiments ± SEM).
As for `CCCN(CCCNC(=O)c1ccc(-c2ccccc2)s1)Cc1ccccc1` [Compound 26, N-(3-(benzyl(propyl)amino)propyl)-5-phenylthiophene-2-carboxamide], in data set [5], the P-Selectin expression reduction came out at 76±7%. In addition, the “Solubility (in words)” value in data set [4] is “good solubility”.
In turn, `O=C(NCCCN(CCCO)Cc1ccccc1)c1ccc(-c2ccccc2)s1` [Compound 28, N-(3-(benzyl(3-hydroxypropyl)amino)propyl)-5-phenylthiophene-2-carboxamide] returned an EC50 in data set [1] (setting [6]) of 0.413 µM. Also, in data set [5], the P-Selectin expression reduction was 85±4%.
The matching figures for `O=C(NCCCN(CCc1ccccc1)Cc1ccccc1)c1ccc(-c2ccccc2)s1` [Compound 29, N-(3-(benzyl(phenethyl)amino)propyl)-5-phenylthiophene-2-carboxamide]: 0.459 µM and 2±8%.
For the molecule `O=C(NCCCN(CCCc1ccccc1)Cc1ccccc1)c1ccc(-c2ccccc2)s1` [Compound 30, N-(3-(benzyl(3-phenylpropyl)amino)propyl)-5-phenylthiophene-2-carboxamide], in data set [1] (setting [6]), the response was half-maximal at 1.06 µM (EC50). Also, the P-Selectin expression reduction in data set [5] was determined as 1±5%. In addition, the “Solubility (in words)” value in data set [4] is on record as “good solubility”.
Consider `CC(C)(C)OC(=O)NCCCNC(=O)c1ccc(-c2ccccc2)s1` [Compound 33, tert-butyl (3-(5-phenylthiophene-2-carboxamido)propyl)carbamate], for which the “β-Arrestin recruitment EC50” value in data set [1] (setting [6]) is “no activity”. The P-Selectin expression reduction in data set [5] came to 0±4%.
In data set [1] (setting [6]), `O=C(NCC1CCCN(Cc2ccccc2)C1)c1ccc(-c2ccccc2)s1` (stereo not shown) [Compound 39, N-((1-benzylpiperidin-3-yl)methyl)-5-phenylthiophene-2-carboxamide] registered an EC50 of 1.22 µM. For the same molecule, the P-Selectin expression reduction in data set [5] was 42±9%.
In data set [1] (setting [6]), `O=C(c1ccc(-c2ccccc2)s1)N1CCCN(Cc2ccccc2)CC1` [Compound 40, (4-benzyl-1,4-diazepan-1-yl)(5-phenylthiophen-2-yl)methanone] registered an EC50 of 1.2 µM. In addition, the “Efficacy (Emax) vs CXCL12” value in data set [1] is 32%. Besides, the P-Selectin expression reduction in data set [5] was determined as 76%.
The corresponding values for `CC(C)(C)OC(=O)N1CCCN(C(=O)c2csc(-c3ccccc3)n2)CC1` [Compound 45, tert-butyl 4-(2-phenylthiazole-4-carbonyl)-1,4-diazepane-1-carboxylate] are 5 µM, 29% and 93%.
`CC(C)(C)OC(=O)N1CCN(CCCNC(=O)c2csc(-c3ccccc3)n2)CC1` [Compound 46, tert-butyl 4-(3-(2-phenylthiazole-4-carboxamido)propyl)piperazine-1-carboxylate]: the midpoint of the response in data set [1] (setting [6]), the EC50, lay at 2.7 µM. For the same molecule, the “Efficacy (Emax) vs CXCL12” value in data set [1] is 65%. In addition, the P-Selectin expression reduction in data set [5] stood at 86%.
The matching figures for `CC(C)(C)OC(=O)N1CCN(CCCNCc2csc(-c3ccccc3)n2)CC1` [Compound 47, tert-butyl 4-(3-(((2-phenylthiazol-4-yl)methyl)amino)propyl)piperazine-1-carboxylate]: 2.4 µM, 89% and 100%.
The matching figures for `CC(C)(C)OC(=O)N1CCN(CCNC(=O)c2cc3ccccc3s2)CC1` [Compound 49, tert-butyl 4-(2-(benzo[b]thiophene-2-carboxamido)ethyl)piperazine-1-carboxylate]: 4.55 µM, 25% and 70%.
Consider `COc1cc(C(=O)N(CCC2CCCN2C)C/C(C)=C/c2ccccc2F)cc(OC)c1OC` (stereo not shown) [VUF11207, reference compound], for which, in data set [1] (setting [6]), the EC50 was determined as 0.0436 µM. Also, the “Efficacy (Emax) vs CXCL12” value in data set [1] was determined as 95%. Besides, the “platelet aggregation (in words)” value in data set [3] is “reduction of platelet aggregation”. The P-Selectin expression reduction in data set [5] was 65% and 65±6%.
